# Assay results from ChEMBL document CHEMBL3885881, “DrugMatrix”.
# Species on record: Rattus norvegicus
# Test: DrugMatrix - Regimen: Daily Repeat
# Assay type: toxicity, organism-based, Sprague-Dawley
# Design: regimen Daily Repeat, gender Male, age 6-8 weeks
# Details: in vivo, sc, […], route mini-PUMP - SUBCUTANEOUS, dose level High, vehicle 100 % SALINE; for ABSOLUTE LYMPHOCYTE / ABSOLUTE MONOCYTE / BASOPHIL / EOSINOPHIL / ERYTHROCYTE COUNT / HEMATOCRIT / HEMOGLOBIN / LEUKOCYTE COUNT / MEAN CORPUSCULAR HEMOGLOBIN / MEAN CORPUSCULAR HEMOGLOBIN CONCENTRATION / MEAN CORPUSCULAR VOLUME / MONOCYTE / NEUTROPHIL / PLATELET COUNT / ABSOLUTE BASOPHIL / ABSOLUTE EOSINOPHIL / ABSOLUTE SEGMENTED NEUTROPHIL / NUCLEATED RED BLOOD CELLS: tissue Blood
# [1] = 0.5 mg/kg, tissue Plasma, time 14 day
# [2] = 72 h, dose 0.72 mg/Kg, time 3 day
# [3] = 72 h, tissue Plasma, dose 0.72 mg/Kg, time 3 day
# [4] = 120 h, dose 0.72 mg/Kg, time 5 day
# [5] = 120 h, tissue Plasma, dose 0.72 mg/Kg, time 5 day
# [6] = tissue Plasma, dose 0.72 mg/Kg, time 14 day
smiles,measurement,setting,value
CC[C@H](C)[C@H](NC(=O)[C@H](Cc1ccc(O)cc1)NC(=O)[C@@H](NC(=O)[C@H](CCCNC(=N)N)NC(=O)[C@@H](N)CC(=O)O)C(C)C)C(=O)N[C@@H](Cc1cnc[nH]1)C(=O)N1CCC[C@H]1C(=O)N[C@@H](Cc1ccccc1)C(=O)O [ANGIOTENSIN II],ABSOLUTE LYMPHOCYTE,"0.5 mg/kg, time 14 day",9890 cells/µL
same,ABSOLUTE MONOCYTE,"0.5 mg/kg, time 14 day",390 cells/µL
same,BASOPHIL,"0.5 mg/kg, time 14 day",0.3%
same,EOSINOPHIL,"0.5 mg/kg, time 14 day",0.46%
same,ERYTHROCYTE COUNT,"0.5 mg/kg, time 14 day",7.14 x10E6/uL
same,HEMATOCRIT,"0.5 mg/kg, time 14 day",45.2%
same,HEMOGLOBIN,"0.5 mg/kg, time 14 day",14.82 G/DL
same,LEUKOCYTE COUNT,"0.5 mg/kg, time 14 day",13.29 x10E3/uL
same,MEAN CORPUSCULAR HEMOGLOBIN,"0.5 mg/kg, time 14 day",20.82 pg
same,MEAN CORPUSCULAR HEMOGLOBIN CONCENTRATION,"0.5 mg/kg, time 14 day",32.78 G/DL
same,MEAN CORPUSCULAR VOLUME,"0.5 mg/kg, time 14 day",63.38 fL
same,MONOCYTE,"0.5 mg/kg, time 14 day",3.02%
same,NEUTROPHIL,"0.5 mg/kg, time 14 day",20.78%
same,PLATELET COUNT,"0.5 mg/kg, time 14 day",1204.2 x10E3/uL
same,ALBUMIN,[1],3.98 G/DL
same,ALKALINE PHOSPHATASE,[1],370.2 u/L
same,ASPARTATE AMINOTRANSFERASE,[1],94.8 u/L
same,BLOOD UREA NITROGEN,[1],19 mg/dL
same,CARBON DIOXIDE,[1],41 mmol/L
same,CHOLESTEROL,[1],66.8 mg/dL
same,CREATINE PHOSPHOKINASE,[1],324.4 u/L
same,CREATININE,[1],0.74 mg/dL
same,GLUCOSE,[1],138.2 mg/dL
same,LACTATE DEHYDROGENASE,[1],202.4 u/L
same,PHOSPHORUS,[1],9.74 mg/dL
same,POTASSIUM,[1],5.88 MEQ/L
same,SODIUM,[1],149.8 MEQ/L
same,TOTAL BILIRUBIN,[1],0.44 mg/dL
same,URIC ACID,[1],0.7 mg/dL
same,ABSOLUTE BASOPHIL,[2],0 CELLS/uL
same,ABSOLUTE EOSINOPHIL,[2],0 CELLS/uL
same,ABSOLUTE LYMPHOCYTE,[2],11891.33 CELLS/uL
same,ABSOLUTE MONOCYTE,[2],399.33 CELLS/uL
same,ABSOLUTE SEGMENTED NEUTROPHIL,[2],1676 CELLS/uL
same,BASOPHIL,[2],0%
same,EOSINOPHIL,[2],0%
same,ERYTHROCYTE COUNT,[2],6.49 x10E6/uL
same,HEMATOCRIT,[2],38.87%
same,HEMOGLOBIN,[2],14.23 G/DL
same,LEUKOCYTE COUNT,[2],13.97 x10E3/uL
same,MEAN CORPUSCULAR HEMOGLOBIN,[2],21.93 pg
same,MEAN CORPUSCULAR HEMOGLOBIN CONCENTRATION,[2],36.63 G/DL
same,MEAN CORPUSCULAR VOLUME,[2],59.9 fL
same,MONOCYTE,[2],2.67%
same,NEUTROPHIL,[2],12%
same,NUCLEATED RED BLOOD CELLS,[2],0 /100WBC
same,PLATELET COUNT,[2],1285 x10E3/uL
same,ALBUMIN,[3],4.4 G/DL
same,ALKALINE PHOSPHATASE,[3],340 u/L
same,ASPARTATE AMINOTRANSFERASE,[3],83.67 u/L
same,BLOOD UREA NITROGEN,[3],25.67 mg/dL
same,CARBON DIOXIDE,[3],28.67 mmol/L
same,CHOLESTEROL,[3],90.33 mg/dL
same,CREATININE,[3],0.22 mg/dL
same,GLUCOSE,[3],151.33 mg/dL
same,LACTATE DEHYDROGENASE,[3],469.67 u/L
same,PHOSPHORUS,[3],10.63 mg/dL
same,POTASSIUM,[3],5.96 MEQ/L
same,SODIUM,[3],143.73 MEQ/L
same,TOTAL BILIRUBIN,[3],0.2 mg/dL
same,URIC ACID,[3],2 mg/dL
same,ABSOLUTE BASOPHIL,[4],0 CELLS/uL
same,ABSOLUTE EOSINOPHIL,[4],202.67 CELLS/uL
same,ABSOLUTE LYMPHOCYTE,[4],15280.67 CELLS/uL
same,ABSOLUTE MONOCYTE,[4],168.67 CELLS/uL
same,ABSOLUTE SEGMENTED NEUTROPHIL,[4],1814.67 CELLS/uL
same,BASOPHIL,[4],0%
same,EOSINOPHIL,[4],1.33%
same,ERYTHROCYTE COUNT,[4],6.42 x10E6/uL
same,HEMATOCRIT,[4],38.03%
same,HEMOGLOBIN,[4],14.03 G/DL
same,LEUKOCYTE COUNT,[4],17.47 x10E3/uL
same,MEAN CORPUSCULAR HEMOGLOBIN,[4],21.87 pg
same,MEAN CORPUSCULAR HEMOGLOBIN CONCENTRATION,[4],36.9 G/DL
same,MEAN CORPUSCULAR VOLUME,[4],59.23 fL
same,MONOCYTE,[4],1%
same,NEUTROPHIL,[4],10.33%
same,NUCLEATED RED BLOOD CELLS,[4],0 /100WBC
same,PLATELET COUNT,[4],1412 x10E3/uL
same,ALBUMIN,[5],4.23 G/DL
same,ALKALINE PHOSPHATASE,[5],297.67 u/L
same,ASPARTATE AMINOTRANSFERASE,[5],85 u/L
same,BLOOD UREA NITROGEN,[5],26 mg/dL
same,CARBON DIOXIDE,[5],27.33 mmol/L
same,CHOLESTEROL,[5],71 mg/dL
same,CREATININE,[5],0.21 mg/dL
same,GLUCOSE,[5],137 mg/dL
same,LACTATE DEHYDROGENASE,[5],451.33 u/L
same,PHOSPHORUS,[5],11.73 mg/dL
same,POTASSIUM,[5],6.62 MEQ/L
same,SODIUM,[5],144.83 MEQ/L
same,TOTAL BILIRUBIN,[5],0.2 mg/dL
same,URIC ACID,[5],2.03 mg/dL
same,ABSOLUTE BASOPHIL,"dose 0.72 mg/Kg, time 14 day",0 CELLS/uL
same,ABSOLUTE EOSINOPHIL,"dose 0.72 mg/Kg, time 14 day",135.4 CELLS/uL
same,ABSOLUTE LYMPHOCYTE,"dose 0.72 mg/Kg, time 14 day",12908 CELLS/uL
same,ABSOLUTE MONOCYTE,"dose 0.72 mg/Kg, time 14 day",411.8 CELLS/uL
same,ABSOLUTE SEGMENTED NEUTROPHIL,"dose 0.72 mg/Kg, time 14 day",3124.8 CELLS/uL
same,BASOPHIL,"dose 0.72 mg/Kg, time 14 day",0%
same,EOSINOPHIL,"dose 0.72 mg/Kg, time 14 day",0.8%
same,ERYTHROCYTE COUNT,"dose 0.72 mg/Kg, time 14 day",6.73 x10E6/uL
same,HEMATOCRIT,"dose 0.72 mg/Kg, time 14 day",38.96%
same,HEMOGLOBIN,"dose 0.72 mg/Kg, time 14 day",14.36 G/DL
same,LEUKOCYTE COUNT,"dose 0.72 mg/Kg, time 14 day",16.58 x10E3/uL
same,MEAN CORPUSCULAR HEMOGLOBIN,"dose 0.72 mg/Kg, time 14 day",21.34 pg
same,MEAN CORPUSCULAR HEMOGLOBIN CONCENTRATION,"dose 0.72 mg/Kg, time 14 day",36.86 G/DL
same,MEAN CORPUSCULAR VOLUME,"dose 0.72 mg/Kg, time 14 day",57.88 fL
same,MONOCYTE,"dose 0.72 mg/Kg, time 14 day",2.6%
same,NEUTROPHIL,"dose 0.72 mg/Kg, time 14 day",17.8%
same,NUCLEATED RED BLOOD CELLS,"dose 0.72 mg/Kg, time 14 day",0 /100WBC
same,PLATELET COUNT,"dose 0.72 mg/Kg, time 14 day",976.2 x10E3/uL
same,ALBUMIN,[6],4.22 G/DL
same,ALKALINE PHOSPHATASE,[6],388 u/L
same,ASPARTATE AMINOTRANSFERASE,[6],100.6 u/L
same,BLOOD UREA NITROGEN,[6],31 mg/dL
same,CARBON DIOXIDE,[6],34.2 mmol/L
same,CHOLESTEROL,[6],70.6 mg/dL
same,CREATININE,[6],0.27 mg/dL
same,GLUCOSE,[6],174 mg/dL
same,LACTATE DEHYDROGENASE,[6],122.4 u/L
same,PHOSPHORUS,[6],11.92 mg/dL
same,POTASSIUM,[6],5.67 MEQ/L
same,SODIUM,[6],147.54 MEQ/L
same,TOTAL BILIRUBIN,[6],0.2 mg/dL
same,URIC ACID,[6],2.4 mg/dL
